# Source: paper PMC6952396, “Structural basis for itraconazole-mediated NPC1 inhibition” (Nature Communications, 2020)
# Several values for one entry are separate records, joined by “and”; a condition that tells them apart may be missing. Equal values may be shown once.
# Target: T1, NPC1 (Cricetulus griseus, UniProt Q9JLG3)
# T1 construct: CHO-7 cells in the medium are deprived of cholesterol to induce the LDL receptors biosynthesis; endogenous in cells; host or cells: CHO-7 cells
# T1 sequence (Q9JLG3 23-1277): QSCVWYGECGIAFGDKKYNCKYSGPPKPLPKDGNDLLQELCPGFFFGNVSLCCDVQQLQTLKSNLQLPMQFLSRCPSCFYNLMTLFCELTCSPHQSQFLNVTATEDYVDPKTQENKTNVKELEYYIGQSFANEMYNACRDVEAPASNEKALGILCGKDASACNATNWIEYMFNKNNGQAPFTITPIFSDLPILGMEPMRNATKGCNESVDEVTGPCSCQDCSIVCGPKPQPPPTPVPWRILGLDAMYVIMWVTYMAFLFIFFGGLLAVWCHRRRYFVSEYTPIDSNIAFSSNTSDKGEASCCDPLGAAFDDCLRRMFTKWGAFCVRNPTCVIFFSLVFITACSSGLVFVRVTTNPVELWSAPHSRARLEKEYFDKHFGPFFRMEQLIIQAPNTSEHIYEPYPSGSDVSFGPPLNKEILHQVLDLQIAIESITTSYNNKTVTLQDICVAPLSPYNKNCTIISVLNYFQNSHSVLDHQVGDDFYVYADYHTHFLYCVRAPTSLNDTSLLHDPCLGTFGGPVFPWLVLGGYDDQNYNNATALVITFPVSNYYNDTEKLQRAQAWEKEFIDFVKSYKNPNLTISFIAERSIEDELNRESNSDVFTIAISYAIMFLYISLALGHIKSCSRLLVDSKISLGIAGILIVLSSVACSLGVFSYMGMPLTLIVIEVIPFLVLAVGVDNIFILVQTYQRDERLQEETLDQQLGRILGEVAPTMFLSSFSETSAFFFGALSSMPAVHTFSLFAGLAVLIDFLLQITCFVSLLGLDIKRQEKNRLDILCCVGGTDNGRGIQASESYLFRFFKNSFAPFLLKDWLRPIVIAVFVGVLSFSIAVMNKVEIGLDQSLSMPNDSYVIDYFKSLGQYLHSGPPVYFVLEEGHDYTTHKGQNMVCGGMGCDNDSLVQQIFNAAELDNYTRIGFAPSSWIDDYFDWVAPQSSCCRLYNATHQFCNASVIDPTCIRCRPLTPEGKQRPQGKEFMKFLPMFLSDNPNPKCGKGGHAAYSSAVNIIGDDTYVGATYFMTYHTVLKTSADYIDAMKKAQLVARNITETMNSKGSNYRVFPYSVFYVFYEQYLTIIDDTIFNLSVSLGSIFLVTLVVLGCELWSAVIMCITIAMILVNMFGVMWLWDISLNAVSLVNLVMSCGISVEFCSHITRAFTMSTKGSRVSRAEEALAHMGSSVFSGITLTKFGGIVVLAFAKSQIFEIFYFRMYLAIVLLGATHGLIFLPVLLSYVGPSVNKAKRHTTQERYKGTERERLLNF
# Experiment: Cholesterol re-esterification (ACAT) assay measuring NPC1-mediated export of cholesterol from lysosomes in CHO-7 cells
# Assay type: cell-based
# Conditions: for cholesteryl [14C] oleate formed, Repeat 1 / cholesteryl [14C] oleate formed, Repeat 2: Fig. 2 source data; for cholesteryl [14C] oleate formed, Repeat 3 / cholesteryl [14C] oleate formed, Repeat 4: Supplementary Fig. 3 source data
# How it was run: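 CHO-7 cells were sterol-deprived (5% LPDS, 50 µM compactin, 50 µM mevalonate), then given compounds with 10% FCS lipoproteins for 4 h at 37 °C and pulse-labeled 2 h with 0.1 mM [14C]oleate. Lipids were extracted, separated by TLC and cholesteryl [14C]oleate quantified by scintillation counting.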
smiles,measurement,setting,value
"CCC(C)n1ncn(-c2ccc(N3CCN(c4ccc(OCC5COC(Cn6cncn6)(c6ccc(Cl)cc6Cl)O5)cc4)CC3)cc2)c1=O (stereo not drawn) [Itraconazole mixture, itraconazole]","cholesteryl [14C] oleate formed, Repeat 1",0.01 uM compound,4.018 nanomoles formed per hour per milligram cell protein
same,"cholesteryl [14C] oleate formed, Repeat 2",0.01 uM compound,4.2448 nanomoles formed per hour per milligram cell protein
same,"cholesteryl [14C] oleate formed, Repeat 3",0.01 uM compound,4.59 nanomoles formed per hour per milligram cell protein
same,"cholesteryl [14C] oleate formed, Repeat 4",0.01 uM compound,4.561 nanomoles formed per hour per milligram cell protein
same,"cholesteryl [14C] oleate formed, Repeat 1",0.03 uM compound,5.241 nanomoles formed per hour per milligram cell protein
same,"cholesteryl [14C] oleate formed, Repeat 2",0.03 uM compound,3.3234 nanomoles formed per hour per milligram cell protein
same,"cholesteryl [14C] oleate formed, Repeat 3",0.03 uM compound,3.807 nanomoles formed per hour per milligram cell protein
same,"cholesteryl [14C] oleate formed, Repeat 4",0.03 uM compound,5.72 nanomoles formed per hour per milligram cell protein
same,"cholesteryl [14C] oleate formed, Repeat 1",0.06 uM compound,1.349 nanomoles formed per hour per milligram cell protein
same,"cholesteryl [14C] oleate formed, Repeat 2",0.06 uM compound,2.23 nanomoles formed per hour per milligram cell protein
same,"cholesteryl [14C] oleate formed, Repeat 3",0.06 uM compound,3.728 nanomoles formed per hour per milligram cell protein
same,"cholesteryl [14C] oleate formed, Repeat 4",0.06 uM compound,1.926 nanomoles formed per hour per milligram cell protein
same,"cholesteryl [14C] oleate formed, Repeat 1",0.1 uM compound,1.053 nanomoles formed per hour per milligram cell protein
same,"cholesteryl [14C] oleate formed, Repeat 2",0.1 uM compound,0.9435 nanomoles formed per hour per milligram cell protein
same,"cholesteryl [14C] oleate formed, Repeat 3",0.1 uM compound,1.321 nanomoles formed per hour per milligram cell protein
same,"cholesteryl [14C] oleate formed, Repeat 4",0.1 uM compound,1.133 nanomoles formed per hour per milligram cell protein
same,"cholesteryl [14C] oleate formed, Repeat 1",0.3 uM compound,0.3641 nanomoles formed per hour per milligram cell protein
same,"cholesteryl [14C] oleate formed, Repeat 2",0.3 uM compound,0.3378 nanomoles formed per hour per milligram cell protein
same,"cholesteryl [14C] oleate formed, Repeat 3",0.3 uM compound,0.05082 nanomoles formed per hour per milligram cell protein
same,"cholesteryl [14C] oleate formed, Repeat 4",0.3 uM compound,0.1455 nanomoles formed per hour per milligram cell protein
same,IC50,"IC50 (concentration at which each compound inhibited cholesterol esterification by 50%), 10% FCS, 4 h then 2 h [14C] oleate pulse",~50 nM and 50 nM
